Experimental data as given in ChEMBL document CHEMBL1201862, “PubChem BioAssay data set” (2004).
The source made the active and inactive calls.

Assays:
[1] = biological target: Eukaryotic translation initiation factor 4E (Mus musculus, UniProt P63073); experiment: blockers of eIF4G binding by eIF4E – biochemical, TR-FRET, dose response (AID 855); type: functional;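 note: potency for disrupting eIF4E binding to eIF4GI seen as loss of FRET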
[2] = biological target: T1, Coagulation factor XII (Homo sapiens, UniProt P00748); type: functional;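 note: activated factor XIIa alpha cleaving a fluorogenic AMC peptide substrate; inhibitor potency from loss of enzyme activity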
T1 sequence (P00748 whole entry): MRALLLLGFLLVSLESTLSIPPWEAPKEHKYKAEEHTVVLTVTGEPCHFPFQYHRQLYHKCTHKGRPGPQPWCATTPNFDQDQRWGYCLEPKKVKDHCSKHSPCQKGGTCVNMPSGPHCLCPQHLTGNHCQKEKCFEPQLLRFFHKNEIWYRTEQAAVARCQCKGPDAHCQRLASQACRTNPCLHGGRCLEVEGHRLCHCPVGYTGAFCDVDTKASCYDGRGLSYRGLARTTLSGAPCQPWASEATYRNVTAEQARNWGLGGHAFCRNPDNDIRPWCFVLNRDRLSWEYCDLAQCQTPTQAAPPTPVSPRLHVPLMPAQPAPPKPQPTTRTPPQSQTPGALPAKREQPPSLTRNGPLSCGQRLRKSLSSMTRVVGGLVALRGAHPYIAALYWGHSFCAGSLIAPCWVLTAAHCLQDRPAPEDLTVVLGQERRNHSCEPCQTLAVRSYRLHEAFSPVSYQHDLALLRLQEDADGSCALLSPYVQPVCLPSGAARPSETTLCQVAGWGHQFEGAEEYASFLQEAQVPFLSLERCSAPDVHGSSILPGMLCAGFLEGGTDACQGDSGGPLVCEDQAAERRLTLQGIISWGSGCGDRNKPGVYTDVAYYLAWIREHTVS

[3] = A Cell Based Secondary Assay to Explore Cytotoxicity in THP-1 Cells of Compounds that Modulate Mycobacterium tuberculosis in Media Containing Glycerol versus Media without Glycerol (2).; type: functional
[4] = Vero cell cytotoxicity, cytotoxicity control for M. tuberculosis inhibitor project, purified and synthesized samples, set 3 (AID 504684); type: functional
[5] = biological target: T2, Corticotropin-releasing factor receptor 2/Corticotropin-releasing factor-binding protein (Homo sapiens, UniProt P24387+Q13324); experiment: activators of CRF receptor 2 with binding protein – uHTS hits, confirmation (AID 602473); type: functional; details: read-out: EC50_Mean
T2 sequence (Q13324 whole entry): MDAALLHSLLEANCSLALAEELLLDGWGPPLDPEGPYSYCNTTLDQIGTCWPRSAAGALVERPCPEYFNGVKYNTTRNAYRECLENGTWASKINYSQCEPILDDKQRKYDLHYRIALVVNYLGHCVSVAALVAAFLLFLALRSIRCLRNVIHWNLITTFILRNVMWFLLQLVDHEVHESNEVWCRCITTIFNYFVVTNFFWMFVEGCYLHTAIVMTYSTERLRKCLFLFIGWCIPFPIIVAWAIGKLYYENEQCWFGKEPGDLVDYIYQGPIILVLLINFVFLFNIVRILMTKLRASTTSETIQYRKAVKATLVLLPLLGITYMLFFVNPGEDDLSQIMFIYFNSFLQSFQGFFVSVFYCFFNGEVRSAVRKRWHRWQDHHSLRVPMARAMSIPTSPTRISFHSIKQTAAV
T2 sequence (P24387 whole entry): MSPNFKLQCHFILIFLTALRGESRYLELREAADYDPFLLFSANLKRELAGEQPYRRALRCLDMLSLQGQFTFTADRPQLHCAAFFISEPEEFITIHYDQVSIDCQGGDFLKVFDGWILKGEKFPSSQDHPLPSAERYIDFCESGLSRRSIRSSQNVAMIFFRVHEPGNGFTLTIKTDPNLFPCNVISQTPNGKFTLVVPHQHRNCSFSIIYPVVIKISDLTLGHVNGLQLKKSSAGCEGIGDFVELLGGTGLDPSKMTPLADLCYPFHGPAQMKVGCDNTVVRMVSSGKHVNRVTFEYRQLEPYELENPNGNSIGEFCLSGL

[6] = blockers of CRF-binding protein–CRF-R2 complex – cell-based, uHTS hits, 384-well, dose response (AID 651639); type: functional, Homo sapiens; details: read-out: IC50_Mean
[7] = biological target: T2, Corticotropin-releasing factor receptor 2/Corticotropin-releasing factor-binding protein; experiment: Dose Response confirmation of uHTS hits for small molecule antagonists of the CRF-binding protein and CRF-R2 receptor complex.; type: functional; details: read-out: IC50_Mean
[8] = biological target: Glyceraldehyde-3-phosphate dehydrogenase (Homo sapiens, UniProt P04406)
[9] = biological target: T3, Alkaline phosphatase, tissue-nonspecific isozyme (Homo sapiens, UniProt P05186); experiment: potency against alkaline phosphatase TNAP – biochemical, luminescent, dose response, SAR follow-up (AID 1056)
T3 sequence (P05186 whole entry): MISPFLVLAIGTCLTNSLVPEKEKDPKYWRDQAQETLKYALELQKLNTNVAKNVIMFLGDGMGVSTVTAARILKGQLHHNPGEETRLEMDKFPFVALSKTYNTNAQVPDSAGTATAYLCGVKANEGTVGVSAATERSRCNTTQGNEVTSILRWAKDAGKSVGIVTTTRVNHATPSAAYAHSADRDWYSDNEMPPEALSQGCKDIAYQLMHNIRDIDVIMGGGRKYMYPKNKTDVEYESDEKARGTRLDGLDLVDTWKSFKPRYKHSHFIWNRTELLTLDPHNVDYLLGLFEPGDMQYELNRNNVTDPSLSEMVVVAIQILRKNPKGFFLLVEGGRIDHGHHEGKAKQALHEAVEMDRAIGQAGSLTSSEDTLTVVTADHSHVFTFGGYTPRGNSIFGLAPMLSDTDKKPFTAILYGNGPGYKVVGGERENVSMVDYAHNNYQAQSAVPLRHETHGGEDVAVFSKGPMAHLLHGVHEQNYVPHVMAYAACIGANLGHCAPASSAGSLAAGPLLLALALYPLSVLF

[10] = biological target: Nuclear receptor subfamily 5 group A member 2 (Homo sapiens, UniProt O00482); type: functional, cell-based;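 note: HEK293T cells transfected with LRH-1 and a StAR promoter luciferase reporter; potency for inhibitors that lower LRH-1 driven reporter light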
[11] = biological target: Cytochrome P450 3A4 (Homo sapiens, UniProt P08684);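 note: CYP3A4 tested as one member of a cytochrome P450 panel screen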
[12] = biological target: Steroidogenic factor 1 (Homo sapiens, UniProt Q13285); experiment: Counterscreen for inverse agonists of the liver receptor homolog-1 (LRH-1; NR5A2): Luminescence-based cell-based high throughput dose response assay to identify inverse agonists of the Steroidogenic Factor 1 Nuclear Receptor (SF1; NR5A1).; type: functional
[13] = nonselective StAR promoter luciferase inhibitors – cell-based, luminescence, luciferase reporter, counter-screen for LRH-1 inverse agonist project, dose response (AID 651969); type: functional
[14] = cAMP pathway inhibition in counterscreen cell line – TR-FRET cAMP detection, counter-screen for MC4R biased antagonist project, dose response (AID 602305); type: functional, cell-based;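 note: U2OS cells stimulated with forskolin near its EC80 as the cAMP inducer; potency is for inhibition of forskolin-stimulated cAMP signaling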
[15] = biological target: T4, Zinc finger protein mex-5 (Caenorhabditis elegans, UniProt Q9XUB2); experiment: potency of MEX-5 RNA-binding blockers – biochemical, C. elegans, fluorescence polarization, dose response (AID 1960)
T4 sequence (Q9XUB2 whole entry): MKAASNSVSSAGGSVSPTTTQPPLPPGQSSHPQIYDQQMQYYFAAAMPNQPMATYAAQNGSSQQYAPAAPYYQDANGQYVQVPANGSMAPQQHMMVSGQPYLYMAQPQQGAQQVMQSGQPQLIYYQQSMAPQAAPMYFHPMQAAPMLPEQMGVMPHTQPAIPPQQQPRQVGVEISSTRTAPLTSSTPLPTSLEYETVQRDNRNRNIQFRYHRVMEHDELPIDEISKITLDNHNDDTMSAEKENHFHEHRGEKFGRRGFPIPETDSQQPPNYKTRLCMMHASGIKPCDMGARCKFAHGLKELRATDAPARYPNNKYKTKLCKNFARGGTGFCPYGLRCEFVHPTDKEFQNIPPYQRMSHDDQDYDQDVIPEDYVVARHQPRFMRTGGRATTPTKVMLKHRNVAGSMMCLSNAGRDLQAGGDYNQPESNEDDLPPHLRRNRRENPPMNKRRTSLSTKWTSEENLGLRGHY

[16] = biological target: Melanocortin receptor 4 (Homo sapiens, UniProt P32245); experiment: inhibitors of MC4R cAMP signaling – cell-based, TR-FRET, biased antagonists, dose response (AID 602298); type: functional;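 note: antagonist potency against agonist-stimulated cAMP production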
[17] = biological target: T5, RNA-binding protein pos-1 (Caenorhabditis elegans, UniProt G5EF15); experiment: disruptors of C. elegans POS-1 RNA interaction – biochemical, fluorescence polarization, dose response (AID 1964);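 note: purified POS-1 fused to maltose binding protein made in E. coli; potency of compounds blocking POS-1 binding to fluorescent RNA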
T5 sequence (G5EF15 whole entry): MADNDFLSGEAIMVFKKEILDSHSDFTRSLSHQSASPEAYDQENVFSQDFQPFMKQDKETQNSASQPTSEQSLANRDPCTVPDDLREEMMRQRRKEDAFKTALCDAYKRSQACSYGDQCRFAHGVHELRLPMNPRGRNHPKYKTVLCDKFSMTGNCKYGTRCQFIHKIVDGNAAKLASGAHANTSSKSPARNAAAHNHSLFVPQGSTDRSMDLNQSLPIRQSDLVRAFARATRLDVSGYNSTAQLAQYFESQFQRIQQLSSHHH

Eukaryotic translation initiation factor 4E, sequence (P63073 whole entry): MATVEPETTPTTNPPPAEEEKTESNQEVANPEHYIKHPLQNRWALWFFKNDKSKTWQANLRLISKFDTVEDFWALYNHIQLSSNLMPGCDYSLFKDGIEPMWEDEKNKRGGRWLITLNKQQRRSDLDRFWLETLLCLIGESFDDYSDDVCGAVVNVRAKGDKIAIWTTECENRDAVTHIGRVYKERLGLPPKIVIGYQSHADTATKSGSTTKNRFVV
Steroidogenic factor 1, sequence (Q13285 whole entry): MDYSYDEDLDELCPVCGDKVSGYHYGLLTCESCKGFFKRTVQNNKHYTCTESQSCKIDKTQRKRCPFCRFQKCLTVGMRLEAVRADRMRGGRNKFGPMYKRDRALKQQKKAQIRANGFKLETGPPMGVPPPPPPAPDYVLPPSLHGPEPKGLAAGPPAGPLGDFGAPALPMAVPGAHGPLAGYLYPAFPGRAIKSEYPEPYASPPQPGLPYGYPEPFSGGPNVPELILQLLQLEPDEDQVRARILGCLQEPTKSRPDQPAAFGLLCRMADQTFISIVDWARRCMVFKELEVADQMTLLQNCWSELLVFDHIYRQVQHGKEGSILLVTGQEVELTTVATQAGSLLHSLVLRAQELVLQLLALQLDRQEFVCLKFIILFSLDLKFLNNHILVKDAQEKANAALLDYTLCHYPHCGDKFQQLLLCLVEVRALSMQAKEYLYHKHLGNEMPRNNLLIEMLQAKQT
Glyceraldehyde-3-phosphate dehydrogenase, sequence (P04406 whole entry): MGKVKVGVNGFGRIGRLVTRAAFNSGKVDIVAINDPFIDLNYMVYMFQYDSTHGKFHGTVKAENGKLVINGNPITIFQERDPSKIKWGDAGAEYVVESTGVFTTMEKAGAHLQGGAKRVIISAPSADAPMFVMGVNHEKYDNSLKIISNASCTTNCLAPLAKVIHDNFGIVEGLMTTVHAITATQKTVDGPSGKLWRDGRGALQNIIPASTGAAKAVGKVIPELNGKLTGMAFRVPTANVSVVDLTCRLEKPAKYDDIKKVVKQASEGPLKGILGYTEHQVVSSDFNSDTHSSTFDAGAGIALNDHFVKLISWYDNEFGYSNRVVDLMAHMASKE
Melanocortin receptor 4, sequence (P32245 whole entry, the tested form may be a part): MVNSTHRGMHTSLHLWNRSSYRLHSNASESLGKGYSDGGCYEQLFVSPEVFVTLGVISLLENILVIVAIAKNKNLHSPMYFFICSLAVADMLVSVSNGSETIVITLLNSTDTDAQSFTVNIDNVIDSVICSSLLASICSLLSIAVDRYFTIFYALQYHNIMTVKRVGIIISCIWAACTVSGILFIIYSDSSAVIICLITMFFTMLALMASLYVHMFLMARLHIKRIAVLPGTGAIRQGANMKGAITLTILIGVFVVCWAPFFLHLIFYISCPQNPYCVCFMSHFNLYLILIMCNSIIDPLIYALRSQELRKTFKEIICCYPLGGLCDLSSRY
Nuclear receptor subfamily 5 group A member 2, sequence (O00482 whole entry): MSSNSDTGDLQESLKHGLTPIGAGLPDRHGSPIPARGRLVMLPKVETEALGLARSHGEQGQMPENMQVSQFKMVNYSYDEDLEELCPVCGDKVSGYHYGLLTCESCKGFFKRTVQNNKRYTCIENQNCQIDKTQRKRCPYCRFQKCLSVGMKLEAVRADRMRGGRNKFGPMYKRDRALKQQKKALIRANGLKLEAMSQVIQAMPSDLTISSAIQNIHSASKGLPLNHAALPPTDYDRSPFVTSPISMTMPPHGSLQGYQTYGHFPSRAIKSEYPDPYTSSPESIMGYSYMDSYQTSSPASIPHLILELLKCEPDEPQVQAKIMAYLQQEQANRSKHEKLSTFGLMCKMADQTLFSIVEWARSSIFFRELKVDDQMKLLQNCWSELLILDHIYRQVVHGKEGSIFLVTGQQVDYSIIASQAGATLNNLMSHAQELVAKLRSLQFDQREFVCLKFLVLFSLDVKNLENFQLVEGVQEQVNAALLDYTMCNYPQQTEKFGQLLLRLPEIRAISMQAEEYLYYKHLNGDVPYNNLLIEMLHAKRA
Cytochrome P450 3A4, sequence (P08684 whole entry): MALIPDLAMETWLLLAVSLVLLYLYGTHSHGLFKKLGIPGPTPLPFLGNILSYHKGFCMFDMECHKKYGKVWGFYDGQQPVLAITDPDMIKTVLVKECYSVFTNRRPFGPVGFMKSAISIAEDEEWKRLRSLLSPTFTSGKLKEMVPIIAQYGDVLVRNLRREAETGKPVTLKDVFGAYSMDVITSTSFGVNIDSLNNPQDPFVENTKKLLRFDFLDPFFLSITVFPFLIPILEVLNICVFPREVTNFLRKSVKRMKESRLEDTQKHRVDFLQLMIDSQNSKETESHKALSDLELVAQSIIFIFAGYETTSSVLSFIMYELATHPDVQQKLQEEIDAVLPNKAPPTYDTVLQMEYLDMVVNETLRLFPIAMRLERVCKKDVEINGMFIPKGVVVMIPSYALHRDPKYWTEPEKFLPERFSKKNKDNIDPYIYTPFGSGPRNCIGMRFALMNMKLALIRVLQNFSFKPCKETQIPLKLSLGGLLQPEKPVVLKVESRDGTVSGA

COc1ccc(C2=CSC3=NCCN23)cc1F
IC50 [1]: > 64 µM (inactive) | IC50 [2]: > 50 µM (inactive)

CN(Cc1ccccc1)c1nc2c(c(=O)[nH]c(=O)n2C)n1CCCSc1ncccn1
IC50 [2]: > 50 µM (inactive)

CCn1c2ccccc2c2cc(NC(=O)CSc3nc(C)cc(=O)[nH]3)ccc21
CC50 [3]: 41.1 µM (active) | CC50 [4]: 56 µM (active)

CCC(C)NC(=O)C1CN(S(=O)(=O)c2ccccc2)CCN1S(=O)(=O)c1ccccc1 (configuration not stated)
IC50 [2]: > 50 µM (inactive)

CCOC(=O)/C(C#N)=C\c1ccc2c(c1)OCO2
EC50 [5]: > 53 µM (inactive) | IC50 [6]: > 20 µM (inactive) | IC50 [7]: 2.02 µM (active)

O=C1c2c(Cl)c(Cl)c(Cl)c(Cl)c2C(=O)N1c1nnc(CCc2ccccc2)[nH]1
IC50 [8]: > 100 µM (not active) | IC50 [9]: > 100 µM (inactive)

Cc1sc(NC(=O)C(C)C)c(C(=O)Nc2ccccc2)c1C
IC50 [10]: 11.6 µM (inactive) | AC50 [11]: inconclusive | IC50 [12]: 3.85 µM (active) | IC50 [13]: 35.9 µM (inactive)

CCOC(=O)CSc1nc2ccc(Nc3nc(N4CCOCC4)nc(N4CCOCC4)n3)cc2s1
IC50 [14]: > 64.6 µM (inactive) | EC50 [15]: > 300 µM (not active) | IC50 [16]: > 64.6 µM (inactive) | EC50 [17]: > 300 µM (not active)

COc1ccccc1Nc1nc(N)nc(CSC(=S)N2CC(C)CC(C)C2)n1 (configuration not stated)
EC50 [5]: > 53 µM (inactive) | IC50 [6]: > 20 µM (inactive) | IC50 [7]: 32 µM (active)
